Reference: patent publication US20200392116A1, “SUBSTITUTED HETEROCYCLES AS c-MYC TARGETING AGENTS” (NORTHWESTERN UNIVERSITY, priority 2019, published 2020)
Read-outs that look alike come from different tables or passages of the source.

Columns and labels:
[1] = Potency code of Table 2 (assay not stated)
[2] = system: MYC WT and MYC KO rat fibroblasts; assay: Growth inhibition of wild type and MYC knockout rat fibroblasts; format: cell-based
From the text: We tested the top 13 active compounds in the first screen assay. […] More than half of the tested compounds show better growth inhibitory effect on MYC WT compared to MYC KO cells.

[3] = Pharmacokinetics in mice after IV dosing; format: in vivo; conditions: 5 mg/kg intravenously
Procedure: The pharmacokinetics of NUCC-176242 and NUCC-176248 were studied in mice by administering a dose of 5 mg/kg intravenously and measuring the plasma concentration versus time. (See FIG. 10).
The pharmacokinetics of NUCC-176242 and NUCC-176248 were studied in mice by administering a dose of 5 mg/kg intravenously and measuring the plasma concentration versus time.

[4] = system: PC12 cells; assay: Cell viability / proliferation of PC12 cells (MTS); format: cell-based
Procedure: (§1) PC3 prostate cancer cell line with high Myc level and PC12 pheochromocytoma tumor cell line with non functional Max protein, which is not dependent on Myc-Max complex, were phased from ATCC. Cells were plated in 96 well plate at 1000 cells per well, and Myc inhibitor 361 at various concentrations was added to the cells next day. After 3 days of treatment, fresh medium with 361 were added again, and cell viability was measured by MTS assay at day 5 after the treatment. (See FIG. 11).

[5] = system: MycCap cells; assay: Cell viability of MycCap cells; format: cell-based
[6] = system: MV411 cells xenograft; assay: AML xenograft model, combination with Ara-C; format: in vivo, CB17 SCID mice; conditions: AML mice xenograft
Procedure: CB17 SCID mice were inoculated with MV411 cells at the density of 5×10^6 suspended in PBS and matrigel (1:1). The mice were randomized based on tumor volume into 6 different groups after the tumor reached ˜200 to 500 mm^3. The mice were treated either with vehicle, NU031, NU975 alone or in combination with cytarabine (Ara-C). […] (See FIG. 17).

[7] = In vitro metabolism with mouse S9 fraction; format: in vitro ADME
Procedure: In vitro metabolism of NUCC-176242 and NUCC-176248 were tested using mouse liver microsomes and a mouse S9 fraction. (See FIG. 9).
In vitro metabolism of NUCC-176242 and NUCC-176248 were tested using mouse liver microsomes and a mouse S9 fraction.

[8] = system: DNA damage (rH2AX); assay: rH2AX staining assay for DNA damage; format: cell-based
Procedure: Min9 (NUCC-0176234) was also tested for its ability to cause DNA damage in an rH2AX staining assay. We would not expect cMYC-targeting agents to produce significant DNA damage. Compounds that act directly against DNA such as doxorubicin do however. […] (See FIG. 6).

[9] = system: cMYC wild-type (WT) and cMYC KO line; assay: Cell viability assay, cMYC wild-type line versus cMYC KO line; format: cell-based
Procedure: Min9 (NUCC-0176234) was also tested in a cell viability assay against a cMYC wild-type (WT) and a cMYC KO line.

[10] = target: MYC/Max binding to DNA (Homo sapiens, UniProt P01106); assay: Electrophoretic mobility shift assay (EMSA) of MYC/Max binding to DNA
Sequence of MYC/Max binding to DNA (P01106 whole entry): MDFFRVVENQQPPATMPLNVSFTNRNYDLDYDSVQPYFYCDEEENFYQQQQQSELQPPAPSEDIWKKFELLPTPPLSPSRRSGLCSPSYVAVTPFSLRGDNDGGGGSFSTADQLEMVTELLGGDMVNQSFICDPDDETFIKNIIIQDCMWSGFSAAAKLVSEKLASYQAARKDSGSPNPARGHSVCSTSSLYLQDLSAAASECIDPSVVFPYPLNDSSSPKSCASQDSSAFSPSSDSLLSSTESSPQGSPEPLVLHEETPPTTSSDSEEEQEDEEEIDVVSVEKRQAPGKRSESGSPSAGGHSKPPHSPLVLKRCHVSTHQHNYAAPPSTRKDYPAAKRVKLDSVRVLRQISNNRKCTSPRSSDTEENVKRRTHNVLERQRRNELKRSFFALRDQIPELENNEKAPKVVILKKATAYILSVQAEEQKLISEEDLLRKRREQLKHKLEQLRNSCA
Procedure: We also tested our best hit compound Min9 (NUCC-0176234) and newly synthesized analogs for effects of these compounds on MYC/Max binding to DNA in electrophoretic mobility shift assays (EMSAs). (See FIG. 5a and FIG. 5b). We expected the active compounds to impair MYC/Max binding to DNA. Several structural analogs of Min9 were tested over multiple doses for inhibiting MYC-DNA binding and we observed a dose-dependent inhibition. (See FIG. 5c).

[11] = system: MYC transcriptional activity (c-Myc E-box-luciferase reporter, MycCap cells); assay: MYC E-box luciferase reporter assay; format: cell-based; conditions: 4 hours of treatment
How it was run: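 MycCap cells stably carrying c-Myc E-box-luciferase reporter, with CMV-luciferase MycCap-luc as counterpart, seeded 10000 cells/well and treated next day with serial compound dilutions. Luminescence read at 4 h immediately after adding 150 μg/ml luciferin.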

[12] = system: PC3 prostate cancer cell line; assay: Proliferation assay of PC3 cells (MTS); format: cell-based; conditions: Myc dependent cell line
Procedure: as §1

[13] = system: MycCap tumor; assay: MycCap FVB allograft model, combination with anti-PD-1 immunotherapy; format: in vivo, FVB mice; conditions: combination with anti-PD-1 antibody
Procedure: MycCap FVB allograft model was treated with 361 (50 mg/kg) for two days, following by two days of anti-PD-1 antibody (100 ug/day), and kept this 4-day treatment cycle for 4 cycles. (See FIG. 16).

[14] = system: MycCap tumor; assay: MycCap FVB allograft model; format: in vivo, FVB mice; conditions: mouse prostate cancer allograft, intra-peritoneally
Procedure: FVB mice were inoculated with 1×10^6 of MycCap cells in 100 ul of matrigel subcutaneously on both flanks of the mice. When tumor size reached average size of 150 mm^3, mice were randomized based on tumor volume to 2 groups. Mice were administered with 50 mg/kg of 361 or vehicle(Veh) twice daily intra-peritoneally for two days. The treatment was suspended for 10 day, and initiated the treatment with a lower dose […] daily for another 9 days. Tumor size was measured twice a week during the experiment. (See FIG. 15).

CCc1ccc(Oc2c(-c3ccc(OCc4ccncc4)cc3O)n[nH]c2C(F)(F)F)cc1 [NUCC-0176250]
Potency code [1]: + (>40 +)
selectivity of growth inhibition, MYC WT versus MYC KO [2]: great selectivity

CCc1ccc(Oc2c(-c3ccc(OCc4ccc(Cl)cc4)cc3O)nn(C)c2C(F)(F)F)cc1 [NUCC-0176248]
in vivo metabolism (plasma concentration versus time) [3]: correlated well with the observed in vitro metabolism
Potency code [1]: + (>40 +)
selectivity of growth inhibition, MYC WT versus MYC KO [2]: high specificity

CC(C)CCOc1ccc(-c2cc(C(F)(F)F)n[nH]2)c(O)c1-c1cc(C(F)(F)F)cc(C(F)(F)F)c1 [NUCC-0201198]
IC50 ([4]; Rattus norvegicus, PC-12): 8.2 µM
Potency code [1]: +++ (10-30 +++)
IC50 ([5]; Mus musculus, Myc-CaP): 2.6 µM

Cn1nc(C(F)(F)F)cc1-c1ccc(OCc2ccc(Cl)cc2)c(-c2ccc(Cl)c(C(F)(F)F)c2)c1O [NU975]
anti-tumor effect in combination with Ara-C [6]: significant difference compared to control group

CCc1ccc(Oc2c(-c3ccc(OCc4ccc(Cl)cc4)cc3O)n[nH]c2C(F)(F)F)cc1 [NUCC-0176242]
in vivo metabolism (plasma concentration versus time) [3]: correlated well with the observed in vitro metabolism
metabolism by mouse S9 fraction [7]: significantly metabolism by the mouse S9 fraction versus NUCC-176248
Potency code [1]: ++ (30-40 ++)

CCc1ccc(Oc2c[nH]nc2-c2ccc(OCc3cnn(-c4ccccc4)c3)cc2O)cc1 [NUCC-0176234]
Potency code [1]: + (>40 +)
DNA damage [8]: essentially no DNA damage
cell viability, WT line versus KO cells [9]: reduces cell viability much more in the WT line than the KO cells
inhibition of MYC/Max (c-MYC) binding to DNA ([10]; in words): prevent c-MYC/DNA binding

Cn1nc(C(F)(F)F)cc1-c1ccc(OCc2ccc(Cl)cc2)c(-c2ccc(Cl)c(C(F)(F)F)c2)c1O [compound 975]
anti-tumor effect in combination with Ara-C [6]: significant synergic anti-tumor effect

O=C1CCC(N2C(=O)c3cccc(OCc4cn(CCOCCOCCOCCOCC(=O)Nc5ccc(COc6ccc(-c7cc(C(F)(F)F)n[nH]7)c(O)c6-c6cc(C(F)(F)F)cc(C(F)(F)F)c6)cc5)nn4)c3C2=O)C(=O)N1 (centres unmarked) [NUCC-0201203]
Potency code [1]: ++ (30-40 ++)
IC50 [5]: 32.4 µM

Cn1nc(C(F)(F)F)cc1-c1ccc(OCc2ccc(Cl)cc2)c(-c2cc(C(F)(F)F)cc(C(F)(F)F)c2)c1O [compound 361]
c-Myc transcription activity [11]: inhibits c-Myc transcription activity as an early event before affecting cell viability
proliferation of PC3 [12]: specifically inhibits proliferation
tumor progression [13]: significantly blocks tumor progression
tumor volume [14]: reduces tumor volume

CCCCOc1ccc(-c2cc(C(F)(F)F)n[nH]2)c(O)c1-c1cc(C(F)(F)F)cc(C(F)(F)F)c1 [NU031]
anti-tumor effect in combination with Ara-C [6]: significant difference compared to control group

CCc1ccc(Oc2c(-c3ccc(OCc4cccc(Cl)c4)cc3O)n[nH]c2C(F)(F)F)cc1 [NUCC-0196295]
Potency code [1]: +++ (10-30 +++)
IC50 [10]: 66.8 µM

O=C1CCC(N2C(=O)c3cccc(OCc4cn(CCOCCOCCOCC(=O)Nc5ccc(COc6ccc(-c7cc(C(F)(F)F)n[nH]7)c(O)c6-c6cc(C(F)(F)F)cc(C(F)(F)F)c6)cc5)nn4)c3C2=O)C(=O)N1 (centres unmarked) [NUCC-0201202]
IC50 [4]: 23.1 µM
Potency code [1]: +++ (10-30 +++)
IC50 [5]: 4 µM
